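The compound was tested at five concentrations on cells cultured in 96-well plates, with a 48-hour exposure period. TGI denotes the concentration required for complete inhibition of growth.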
Assays:
Assay in all cases: NCI-60 cell line screen, 48 h
SK-OV-3 ovarian = test system: SK-OV-3 ovarian
A549 NSCLC = test system: A549 NSCLC
BT-549 breast = test system: BT-549 breast
LOX IMVI melanoma = test system: LOX IMVI melanoma
DU-145 prostate = test system: DU-145 prostate
UO-31 renal = test system: UO-31 renal
OVCAR-8 ovarian = test system: OVCAR-8 ovarian
SK-MEL-2 melanoma = test system: SK-MEL-2 melanoma
UACC-62 melanoma = test system: UACC-62 melanoma
T-47D breast = test system: T-47D breast
UACC-257 melanoma = test system: UACC-257 melanoma
EKVX NSCLC = test system: EKVX NSCLC
MDA-MB-231 breast = test system: MDA-MB-231 breast
OVCAR-5 ovarian = test system: OVCAR-5 ovarian
SF-268 CNS = test system: SF-268 CNS
HL-60(TB) leukemia = test system: HL-60(TB) leukemia
MALME-3M melanoma = test system: MALME-3M melanoma
SF-539 CNS = test system: SF-539 CNS
HCC-2998 colon = test system: HCC-2998 colon
NCI/ADR-RES ovarian = test system: NCI/ADR-RES ovarian

| SMILES | TGI (SK-OV-3 ovarian) [µM] | TGI (A549 NSCLC) [µM] | TGI (BT-549 breast) [µM] | TGI (LOX IMVI melanoma) [µM] | TGI (DU-145 prostate) [µM] | TGI (UO-31 renal) [µM] | TGI (OVCAR-8 ovarian) [µM] | TGI (SK-MEL-2 melanoma) [µM] | TGI (UACC-62 melanoma) [µM] | TGI (T-47D breast) [µM] | TGI (UACC-257 melanoma) [µM] | TGI (EKVX NSCLC) [µM] | TGI (MDA-MB-231 breast) [µM] | TGI (OVCAR-5 ovarian) [µM] | TGI (SF-268 CNS) [µM] | TGI (HL-60(TB) leukemia) [µM] | TGI (MALME-3M melanoma) [µM] | TGI (SF-539 CNS) [µM] | TGI (HCC-2998 colon) [µM] | TGI (NCI/ADR-RES ovarian) [µM] |
| --- | --- | --- | --- | --- | --- | --- | --- | --- | --- | --- | --- | --- | --- | --- | --- | --- | --- | --- | --- | --- |
| c1ccc2c3c([nH]c2c1)C1c2[nH]c4ccccc4c2CCN1CC3 | 27.1 | 36.2 | 29.9 | 34.8 | 26.1 | 18.5 | 26.9 | 64.2 | 33.9 | 37.1 | 28.6 | 20.2 | 36.6 | 33.7 | 30.3 | 66.5 | 30 | 31.3 | 25.9 | 5.47 |
| c1ccc2sc(C3(N4CCCCC4)CCCCCC3)cc2c1 | 66.7 | 80.9 | 52.7 | 34.6 | > 100 | 60.8 | 72.5 | 68.4 | 80.4 | 31.6 | 34.9 | 47.2 | 42.1 | 36.7 | 46.7 | 11.4 | 53.9 | 38.2 | 27.9 | 45.8 |
| COc1cc(C(N)=O)cc(NC(=O)/C=C/c2ccccc2)c1OC | > 100 | > 100 | > 100 | > 100 | > 100 | > 100 | > 100 | > 100 | > 100 | > 100 | > 100 | > 100 | > 100 | > 100 | > 100 | > 100 | > 100 | > 100 | > 100 | > 100 |
| COC(=O)NN=C(c1ccc(Cl)cc1)c1ccc(Cl)cc1 | > 100 | > 100 | > 100 | > 100 | > 100 | > 100 | > 100 | > 100 | > 100 | > 100 | > 100 | > 100 | > 100 | > 100 | > 100 | > 100 | > 100 | > 100 | > 100 | > 100 |
| CCCN(CCCCN1C(=O)c2ccccc2C1=O)CC1COc2ccccc2O1 (stereo not given) | > 100 | > 100 | > 100 | > 100 | > 100 | > 100 | > 100 | > 100 | > 100 | > 100 | > 100 | > 100 | > 100 | > 100 | > 100 | 95.9 | > 100 | > 100 | > 100 | > 100 |
| CCCC(=O)OC[n+]1cccc(-c2c(COC(=O)NC(C)C)c(COC(=O)NC(C)C)c3n2CCC3)c1 | > 100 | > 100 | > 100 | > 100 | > 100 | > 100 | > 100 | > 100 | 61.8 | > 100 | > 100 | > 100 | > 100 | > 100 | > 100 | > 67.3 | > 100 | 60.9 | > 100 | > 100 |

From PubChem BioAssay (NCI)
